Measurements from ChEMBL document CHEMBL1909046, “DrugMatrix in vitro pharmacology data”.

Experiments:
[1] = DRUGMATRIX: beta-Lactamase enzyme inhibition (substrate: Nitrocefin); parameters: species or system Bacillus cereus; details: Not Active = under 50% inhibition at 10 µM
B2 bradykinin receptor = molecular target: T1, B2 bradykinin receptor (Homo sapiens, UniProt P30411); type: cell membranes, Membrane; details: chem-1; note: in other assays of this panel Not Active means under 50% inhibition at 10 µM
T1 sequence (P30411 whole entry): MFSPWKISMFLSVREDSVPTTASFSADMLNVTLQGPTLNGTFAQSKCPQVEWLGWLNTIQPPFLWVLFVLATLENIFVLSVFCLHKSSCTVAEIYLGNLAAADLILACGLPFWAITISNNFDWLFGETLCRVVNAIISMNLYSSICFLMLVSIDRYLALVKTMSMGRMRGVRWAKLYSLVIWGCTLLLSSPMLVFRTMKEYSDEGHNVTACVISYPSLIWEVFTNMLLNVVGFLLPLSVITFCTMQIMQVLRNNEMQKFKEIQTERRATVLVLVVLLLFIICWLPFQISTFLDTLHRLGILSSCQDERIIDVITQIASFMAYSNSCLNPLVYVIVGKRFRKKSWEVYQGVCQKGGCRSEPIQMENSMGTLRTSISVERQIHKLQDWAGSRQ

[2] = DRUGMATRIX: Glutamate, Kainate radioligand binding (ligand: [3H] Kainic acid); type: cell membranes, Rattus norvegicus, Wistar, Brain, Membrane; details: Not Active = under 50% inhibition at 10 µM
[3] = DRUGMATRIX: Glutamate, NMDA, Phencyclidine radioligand binding (ligand: [3H] TCP); type: cell membranes, Rattus norvegicus, Wistar, Cerebral cortex, Membrane; details: Not Active = under 50% inhibition at 10 µM
[4] = DRUGMATRIX: Imidazoline I2, Central radioligand binding (ligand: [3H] Idazoxan); type: cell membranes, Rattus norvegicus, Wistar, Cerebral cortex, Membrane; details: Not Active = under 50% inhibition at 10 µM
[5] = molecular target: T2, Neuropeptide Y receptor type 1 (Homo sapiens, UniProt P25929); type: cell membranes, Membrane; details: sk-n-mc; note: in other assays of this panel Not Active means under 50% inhibition at 10 µM
T2 sequence (P25929 whole entry): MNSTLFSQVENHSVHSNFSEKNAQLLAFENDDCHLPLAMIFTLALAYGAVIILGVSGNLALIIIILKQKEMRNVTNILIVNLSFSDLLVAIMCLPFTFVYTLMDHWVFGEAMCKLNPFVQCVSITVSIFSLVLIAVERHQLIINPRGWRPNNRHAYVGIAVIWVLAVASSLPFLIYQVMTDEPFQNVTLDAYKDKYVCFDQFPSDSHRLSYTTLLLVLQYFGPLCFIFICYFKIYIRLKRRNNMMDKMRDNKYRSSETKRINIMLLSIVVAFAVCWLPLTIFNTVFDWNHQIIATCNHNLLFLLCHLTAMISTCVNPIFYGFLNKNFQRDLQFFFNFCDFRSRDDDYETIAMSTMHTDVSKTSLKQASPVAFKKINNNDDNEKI

[6] = molecular target: T3, Neuropeptide Y receptor type 2 (Homo sapiens, UniProt P49146); type: cell membranes, Membrane; details: kan-ts; note: in other assays of this panel Not Active means under 50% inhibition at 10 µM
T3 sequence (P49146 whole entry): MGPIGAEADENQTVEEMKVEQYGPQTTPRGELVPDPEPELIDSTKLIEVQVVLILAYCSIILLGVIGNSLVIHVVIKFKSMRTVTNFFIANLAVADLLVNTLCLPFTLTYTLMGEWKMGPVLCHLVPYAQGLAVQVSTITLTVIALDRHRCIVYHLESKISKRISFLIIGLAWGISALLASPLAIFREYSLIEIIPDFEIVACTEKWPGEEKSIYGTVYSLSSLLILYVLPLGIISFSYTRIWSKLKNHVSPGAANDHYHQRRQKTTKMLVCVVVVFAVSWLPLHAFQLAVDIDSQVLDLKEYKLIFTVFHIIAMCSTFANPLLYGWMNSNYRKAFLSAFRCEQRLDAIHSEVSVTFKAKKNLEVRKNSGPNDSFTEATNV

[7] = molecular target: T4, Angiotensin-converting enzyme (Oryctolagus cuniculus, UniProt P12822); assay: biochemical; type: tissue-based, Lung;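 note: enzymatic inhibition of angiotensin-converting enzyme measured with FAPGG as the substrate; in other assays of this panel Not Active means under 50% inhibition at 10 µM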
T4 sequence (P12822 whole entry): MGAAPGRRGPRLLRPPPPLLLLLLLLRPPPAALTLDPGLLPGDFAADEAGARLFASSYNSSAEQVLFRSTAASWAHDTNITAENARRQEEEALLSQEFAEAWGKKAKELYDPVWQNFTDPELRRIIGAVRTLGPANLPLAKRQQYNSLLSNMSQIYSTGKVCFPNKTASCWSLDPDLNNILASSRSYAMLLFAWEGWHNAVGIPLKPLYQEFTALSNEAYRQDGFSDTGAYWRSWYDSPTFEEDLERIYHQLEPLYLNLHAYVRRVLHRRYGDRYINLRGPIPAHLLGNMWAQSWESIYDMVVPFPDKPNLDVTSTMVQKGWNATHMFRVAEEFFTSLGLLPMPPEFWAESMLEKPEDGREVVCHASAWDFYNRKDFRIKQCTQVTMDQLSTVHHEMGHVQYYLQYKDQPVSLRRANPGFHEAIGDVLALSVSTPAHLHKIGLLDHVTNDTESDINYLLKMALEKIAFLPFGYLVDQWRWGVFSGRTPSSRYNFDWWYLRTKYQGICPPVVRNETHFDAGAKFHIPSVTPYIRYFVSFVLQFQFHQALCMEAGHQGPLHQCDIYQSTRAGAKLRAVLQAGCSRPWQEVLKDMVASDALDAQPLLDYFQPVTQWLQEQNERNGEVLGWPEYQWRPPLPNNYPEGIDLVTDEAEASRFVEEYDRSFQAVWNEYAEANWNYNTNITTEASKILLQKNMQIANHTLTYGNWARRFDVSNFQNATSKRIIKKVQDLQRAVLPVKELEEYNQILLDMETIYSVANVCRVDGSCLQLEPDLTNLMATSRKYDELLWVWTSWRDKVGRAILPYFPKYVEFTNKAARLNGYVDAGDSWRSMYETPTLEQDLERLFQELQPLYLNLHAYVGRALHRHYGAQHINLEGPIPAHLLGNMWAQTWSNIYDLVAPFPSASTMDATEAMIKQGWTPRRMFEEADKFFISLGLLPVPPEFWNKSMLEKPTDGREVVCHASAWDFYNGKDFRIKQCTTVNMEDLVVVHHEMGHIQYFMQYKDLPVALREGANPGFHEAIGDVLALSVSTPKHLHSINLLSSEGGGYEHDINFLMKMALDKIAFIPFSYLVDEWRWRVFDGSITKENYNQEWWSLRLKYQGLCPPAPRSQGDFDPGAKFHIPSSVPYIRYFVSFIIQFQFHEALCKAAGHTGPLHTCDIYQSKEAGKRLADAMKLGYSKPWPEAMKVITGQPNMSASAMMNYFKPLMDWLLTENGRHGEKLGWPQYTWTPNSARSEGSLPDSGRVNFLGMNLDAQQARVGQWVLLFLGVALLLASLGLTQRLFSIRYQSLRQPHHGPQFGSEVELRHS

C[N+](C)(C)CCOC(N)=O.[Cl-] [CARBACHOL]
Not Active: IC50 [1] | Ki [1] | IC50 (B2 bradykinin receptor) | IC50 [2] | Ki [2] | IC50 [3] | Ki [3] | IC50 [4] | Ki [4] | IC50 [5] | IC50 [6] | IC50 [7]

C[C@]12CC[C@@H](O)C[C@@H]1CC[C@@H]1[C@@H]2CC[C@]2(C)C(=O)CC[C@@H]12 [ANDROSTERONE]
Not Active: IC50 [1] | Ki [1] | IC50 (B2 bradykinin receptor) | IC50 [2] | Ki [2] | IC50 [3] | Ki [3] | IC50 [4] | Ki [4] | IC50 [5] | IC50 [6] | IC50 [7]

C[C@H](C(=O)O)c1ccc2oc(-c3ccc(F)cc3)nc2c1 [FLUNOXAPROFEN]
Not Active: IC50 [1] | Ki [1] | IC50 (B2 bradykinin receptor) | IC50 [2] | Ki [2] | IC50 [3] | Ki [3] | IC50 [4] | Ki [4] | IC50 [5] | IC50 [6] | IC50 [7]

COPPER(II) OXIDE
Not Active: IC50 [1] | Ki [1] | IC50 (B2 bradykinin receptor) | Ki (B2 bradykinin receptor) | IC50 [2] | Ki [2] | IC50 [3] | Ki [3] | IC50 [4] | Ki [4] | IC50 [5] | Ki [5] | IC50 [6] | Ki [6] | IC50 [7] | Ki [7]

NC(=O)CN1CCCC1=O
Not Active: IC50 [1] | Ki [1] | IC50 (B2 bradykinin receptor) | IC50 [2] | Ki [2] | IC50 [3] | Ki [3] | IC50 [4] | Ki [4] | IC50 [5] | IC50 [6] | IC50 [7]

O=C1c2ccccc2C(=O)C1c1ccccc1 [PHENINDIONE]
Not Active: IC50 [1] | Ki [1] | IC50 (B2 bradykinin receptor) | IC50 [2] | Ki [2] | IC50 [3] | Ki [3] | IC50 [4] | Ki [4] | IC50 [5] | IC50 [6] | IC50 [7]

CCN1C[C@]2(COC)[C@H](O)C[C@H](OC)[C@@]34[C@@H]5C[C@@]6(O)[C@H](OC(=O)c7ccccc7)[C@@H]5[C@@](OC(C)=O)([C@@H]([C@H](OC)[C@H]23)[C@@H]14)[C@@H](O)[C@@H]6OC [ACONITINE]
Not Active: IC50 [1] | Ki [1] | IC50 (B2 bradykinin receptor) | IC50 [2] | Ki [2] | IC50 [3] | Ki [3] | IC50 [4] | Ki [4] | IC50 [5] | IC50 [6] | IC50 [7]

O=C(NCCN1CCOCC1)c1ccc(Cl)cc1 [MOCLOBEMIDE]
Not Active: IC50 [1] | Ki [1] | IC50 (B2 bradykinin receptor) | IC50 [2] | Ki [2] | IC50 [3] | Ki [3] | IC50 [4] | Ki [4] | IC50 [5] | IC50 [6] | IC50 [7]

O=C(O)COC(=O)Cc1ccccc1Nc1c(Cl)cccc1Cl [ACECLOFENAC]
Not Active: IC50 [1] | Ki [1] | IC50 (B2 bradykinin receptor) | IC50 [2] | Ki [2] | IC50 [3] | Ki [3] | IC50 [4] | Ki [4] | IC50 [5] | IC50 [6] | IC50 [7]

COc1cc(/C=C/C(=O)O)ccc1O [FERULATE]
Not Active: IC50 [1] | Ki [1] | IC50 (B2 bradykinin receptor) | IC50 [2] | Ki [2] | IC50 [3] | Ki [3] | IC50 [4] | Ki [4] | IC50 [5] | IC50 [6] | IC50 [7]

O=c1[nH]c2ccccc2c2ccccc12
Not Active: IC50 [1] | Ki [1] | IC50 (B2 bradykinin receptor) | IC50 [2] | Ki [2] | IC50 [3] | Ki [3] | IC50 [4] | Ki [4] | IC50 [5] | IC50 [6] | IC50 [7]
